Data from ChEMBL document CHEMBL5338815 (J Med Chem, 2023).
Active and inactive are the calls of the source. The calls are words filed in the database; no cut-off is given here.

Legend:
[1] = biological target: T1, Histone-lysine N-methyltransferase EHMT2 (Homo sapiens, UniProt Q96KQ7); experiment: Inhibition of G9a (unknown origin) by AlphaLISA assay
T1 sequence (Q96KQ7 whole entry): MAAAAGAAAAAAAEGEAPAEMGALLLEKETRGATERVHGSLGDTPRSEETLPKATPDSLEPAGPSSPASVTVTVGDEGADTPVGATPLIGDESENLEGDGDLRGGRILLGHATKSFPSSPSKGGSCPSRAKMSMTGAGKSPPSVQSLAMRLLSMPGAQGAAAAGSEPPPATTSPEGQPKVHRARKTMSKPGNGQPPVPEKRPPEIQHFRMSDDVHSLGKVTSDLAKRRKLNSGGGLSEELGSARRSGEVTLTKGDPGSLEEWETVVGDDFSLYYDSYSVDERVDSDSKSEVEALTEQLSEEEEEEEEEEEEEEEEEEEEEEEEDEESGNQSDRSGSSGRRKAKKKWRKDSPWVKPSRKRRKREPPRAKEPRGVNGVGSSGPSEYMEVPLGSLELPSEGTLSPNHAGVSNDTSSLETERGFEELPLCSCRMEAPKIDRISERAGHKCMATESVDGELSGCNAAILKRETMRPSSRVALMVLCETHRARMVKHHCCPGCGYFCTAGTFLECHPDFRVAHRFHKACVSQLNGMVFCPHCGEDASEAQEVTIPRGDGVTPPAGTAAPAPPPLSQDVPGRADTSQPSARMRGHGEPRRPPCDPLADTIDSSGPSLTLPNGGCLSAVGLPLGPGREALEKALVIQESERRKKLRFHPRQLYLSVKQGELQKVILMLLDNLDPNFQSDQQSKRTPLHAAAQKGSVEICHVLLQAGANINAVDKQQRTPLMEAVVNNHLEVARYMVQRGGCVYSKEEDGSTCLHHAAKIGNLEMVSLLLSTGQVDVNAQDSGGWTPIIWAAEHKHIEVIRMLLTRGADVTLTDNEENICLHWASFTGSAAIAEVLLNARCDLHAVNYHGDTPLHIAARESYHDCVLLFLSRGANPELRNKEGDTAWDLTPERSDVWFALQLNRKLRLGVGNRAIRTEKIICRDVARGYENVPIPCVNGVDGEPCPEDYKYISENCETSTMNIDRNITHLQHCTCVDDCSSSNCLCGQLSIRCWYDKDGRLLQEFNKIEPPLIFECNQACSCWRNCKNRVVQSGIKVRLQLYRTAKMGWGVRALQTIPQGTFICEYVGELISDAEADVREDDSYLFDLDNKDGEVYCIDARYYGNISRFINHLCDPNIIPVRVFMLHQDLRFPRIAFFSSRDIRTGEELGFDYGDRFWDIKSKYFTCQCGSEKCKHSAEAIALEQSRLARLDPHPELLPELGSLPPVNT

[2] = tested on: PANC-1; experiment: Antiproliferative activity against human PANC-1 cells assessed as cell viability measured after 24 hrs by CCK-8 assay; format: functional, cell-based; conditions: PANC-1, 24 h
[3] = tested on: MDA-MB-231; experiment: Antiproliferative activity against human MDA-MB-231 cells assessed as cell viability measured after 24 hrs by CCK-8 assay; format: functional, cell-based; conditions: MDA-MB-231, 24 h
[4] = Metabolic stability in mouse liver microsomes assessed as half life at 0.1 uM measured upto 60 mins by LC-MS/MS analysis; format: ADME, Microsome
[5] = biological target: T2, Histone-lysine N-methyltransferase EHMT1 (Homo sapiens, UniProt Q9H9B1); experiment: Inhibition of GLP (unknown origin)
T2 sequence (Q9H9B1 whole entry): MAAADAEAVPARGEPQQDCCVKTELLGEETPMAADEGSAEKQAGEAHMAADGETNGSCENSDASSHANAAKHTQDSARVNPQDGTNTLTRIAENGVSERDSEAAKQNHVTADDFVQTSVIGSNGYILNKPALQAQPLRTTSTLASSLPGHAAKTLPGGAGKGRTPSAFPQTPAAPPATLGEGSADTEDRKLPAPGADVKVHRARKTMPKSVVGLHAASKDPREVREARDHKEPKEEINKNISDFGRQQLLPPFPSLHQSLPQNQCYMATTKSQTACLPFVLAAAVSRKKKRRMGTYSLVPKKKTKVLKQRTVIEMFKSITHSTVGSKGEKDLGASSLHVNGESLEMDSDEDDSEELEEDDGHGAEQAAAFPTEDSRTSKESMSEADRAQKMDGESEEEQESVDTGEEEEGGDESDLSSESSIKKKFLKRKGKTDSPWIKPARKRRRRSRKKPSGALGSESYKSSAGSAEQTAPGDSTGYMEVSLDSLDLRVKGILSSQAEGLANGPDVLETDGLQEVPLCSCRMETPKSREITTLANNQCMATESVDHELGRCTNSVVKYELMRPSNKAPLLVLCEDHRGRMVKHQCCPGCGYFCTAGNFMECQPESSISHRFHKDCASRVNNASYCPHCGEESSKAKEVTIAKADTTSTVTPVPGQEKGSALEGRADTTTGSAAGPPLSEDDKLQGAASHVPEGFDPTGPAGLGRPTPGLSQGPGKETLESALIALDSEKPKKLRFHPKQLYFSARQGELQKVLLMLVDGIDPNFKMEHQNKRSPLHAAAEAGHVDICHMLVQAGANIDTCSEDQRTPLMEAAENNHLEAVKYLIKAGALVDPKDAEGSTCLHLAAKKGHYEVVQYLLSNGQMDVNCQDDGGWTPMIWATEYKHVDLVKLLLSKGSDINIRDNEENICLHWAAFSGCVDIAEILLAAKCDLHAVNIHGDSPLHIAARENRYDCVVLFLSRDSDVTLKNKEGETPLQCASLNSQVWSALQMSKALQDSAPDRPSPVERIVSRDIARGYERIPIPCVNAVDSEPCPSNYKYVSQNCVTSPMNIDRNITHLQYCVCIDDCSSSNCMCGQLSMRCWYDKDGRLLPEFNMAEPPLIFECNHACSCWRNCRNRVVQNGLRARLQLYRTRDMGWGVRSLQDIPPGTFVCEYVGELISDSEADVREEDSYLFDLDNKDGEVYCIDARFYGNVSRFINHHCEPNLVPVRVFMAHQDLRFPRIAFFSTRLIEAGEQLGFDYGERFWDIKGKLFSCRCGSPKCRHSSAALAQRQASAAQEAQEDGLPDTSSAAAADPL

[6] = biological target: T1, Histone-lysine N-methyltransferase EHMT2; experiment: Inhibition of human recombinant G9a using H3-SAM as substrate
[7] = tested on: MDA-MB-231; experiment: Reduction in H3K9me2 level in human MDA-MB-231 cells at 10 uM incubated for 48 hrs followed replaced with fresh medium measured after 24 hrs by Western blot analysis; format: functional, cell-based
[8] = biological target: T3, Histone-lysine N-methyltransferase EHMT2 (Homo sapiens) (UniProt Q96KQ7); experiment: Binding affinity to G9a in human MDA-MB-231 cells assessed as protein stabilization at 37 to 41.7 degC at 10 uM incubated for 15 hrs in presence of G9a antibody by CETSA; format: cell-based
T3 sequence (whole entry): T1 sequence (Q96KQ7 whole entry)

[9] = tested on: MDA-MB-231; experiment: Reduction in H3K9me2 level in human MDA-MB-231 cells at 10 uM by Western blot analysis; format: functional, cell-based; conditions: time 24-96 hrs, TDE = time-dependent effect

| Compound | IC50 [1] | further results |
| --- | --- | --- |
| COc1cc2c(NC3CCN(C)CC3)nc(CNC(=O)C3(C#N)CC3)nc2cc1OCCCN1CCCC1 | 111 nM | – |
| C=CC(=O)N(C)c1nc(NC2CCN(C(C)C)CC2)c2cc(OC)c(OCCCN3CCCC3)cc2n1 | 4.4 nM | IC50 [2]: 8220 nM; IC50 [3]: 9600 nM |
| C=CC(=O)NCc1nc(NC2CCN(C)CC2)c2cc(OC)c(OCCCN3CCCC3)cc2n1 | 60 nM | – |
| C=CC(=O)N(C)c1nc(NC2CCN(C3CCCCC3)CC2)c2cc(OC)c(OCCCN3CCCC3)cc2n1 | 3.51 nM | IC50 [2]: 2440 nM; half-life at 0.1 µM [4]: 10 min; IC50 [3]: 2230 nM |
| COc1cc2c(NC3CCN(C)CC3)nc(CNC(=O)CCl)nc2cc1OCCCN1CCCC1 | 5.7 nM | – |
| COc1cc2c(NC3CCN(C)CC3)nc(CNC(=O)/C=C/CN(C)C)nc2cc1OCCCN1CCCC1 | 7.6 nM | – |
| CNc1nc2cc(OCCCN3CCCC3)c(OC)cc2n1C(C)C | – | IC50 [5]: < 100 nM; IC50 [6]: < 100 nM |
| CC#CC(=O)NCc1nc(NC2CCN(C)CC2)c2cc(OC)c(OCCCN3CCCC3)cc2n1 | 95 nM | – |
| C=CC(=O)N(C)c1nc(NC2CCN(CCC)CC2)c2cc(OC)c(OCCCN3CCCC3)cc2n1 | 3.9 nM | IC50 [2]: 4750 nM; IC50 [3]: 5480 nM |
| COc1cc2c(NC3CCN(C)CC3)nc(CNC(=O)CC#N)nc2cc1OCCCN1CCCC1 | 80 nM | – |
| C=C(C)C(=O)NCc1cc(NC2CCN(C)CC2)c2cc(OC)c(OCCCN3CCCC3)cc2n1 | 0.53 nM | – |
| C=CC(=O)NCc1cc(NC2CCN(C)CC2)c2cc(OC)c(OCCCN3CCCC3)cc2n1 | 0.49 nM | – |
| CCC(=O)N(C)c1nc(NC2CCN(C)CC2)c2cc(OC)c(OCCCN3CCCC3)cc2n1 | 5.8 nM | IC50 [2]: 14800 nM; IC50 [3]: 9730 nM; inhibition [7]: inactive; Activity [8]: Active; inhibition [9]: Tde |
| C/C=C/C(=O)NCc1cc(NC2CCN(C)CC2)c2cc(OC)c(OCCCN3CCCC3)cc2n1 | 0.52 nM | – |
| C=CC(=O)N(C)c1nc(NC2CCN(Cc3ccccc3)CC2)c2cc(OC)c(OCCCN3CCCC3)cc2n1 | 5.9 nM | IC50 [2]: 520 nM; half-life at 0.1 µM [4]: 4.72 min; IC50 [3]: 460 nM |
| CCC(=O)NCc1cc(NC2CCN(C)CC2)c2cc(OC)c(OCCCN3CCCC3)cc2n1 | 0.71 nM | – |
| CCC(=O)NCc1nc(NC2CCN(C)CC2)c2cc(OC)c(OCCCN3CCCC3)cc2n1 | 64 nM | – |
| C=CC(=O)N(C)c1nc(NCC2CCN(C)CC2)c2cc(OC)c(OCCCN3CCCC3)cc2n1 | 11 nM | IC50 [2]: > 40000 nM; IC50 [3]: > 40000 nM |
| C=C(C)C(=O)NCc1nc(NC2CCN(C)CC2)c2cc(OC)c(OCCCN3CCCC3)cc2n1 | 116 nM | – |
| CC#CC(=O)NCc1cc(NC2CCN(C)CC2)c2cc(OC)c(OCCCN3CCCC3)cc2n1 | 0.42 nM | – |
| COc1cc2c(NC3CCN(C)CC3)cc(CNC(=O)CCl)nc2cc1OCCCN1CCCC1 | 1.7 nM | – |
| C/C=C/C(=O)NCc1nc(NC2CCN(C)CC2)c2cc(OC)c(OCCCN3CCCC3)cc2n1 | 74 nM | – |
